What was measured:
Italian ryegrass [1] = test: Test C postemergence; type: in vivo, Lolium multiflorum
Procedure, shortened: (§1)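 Seeds are planted in blended loam soil and sand and treated preemergence, while seedlings in a peat moss/vermiculite medium receive postemergence sprays at 2 to 18 cm height. All plants stay in the greenhouse for 13 to 15 days before visual comparison with controls on a 0–100 scale.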

waterhemp = test: Test C preemergence; type: in vivo, Amaranthus rudis; conditions: Amaranthus tuberculatus, pre-emergence, preemergence, read-out: Waterhemp plant response rating
Procedure, shortened: as §1

chickweed = test: Test C postemergence; type: in vivo, Stellaria media; conditions: Stellaria media, post-emergence
Procedure, shortened: as §1

velvetleaf = test: Test C postemergence; type: in vivo, Abutilon theophrasti
Procedure, shortened: as §1

galium = test: Test A postemergence; type: in vivo, Galium aparine; conditions: 0 to 100 scale where 0 is no effect and 100 is complete control
Procedure, shortened: (§2)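 Visual 0–100 rating (100 = complete control) taken about 10 d post-treatment relative to untreated checks. Preemergence: directed soil spray on sown loam/sand pots. Postemergence: seedlings 2–10 cm, 1–2 leaf. Non-phytotoxic solvent formulation with surfactant.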

blackgrass = test: Test A postemergence; type: in vivo, Alopecurus myosuroides; conditions: 0 to 100 scale where 0 is no effect and 100 is complete control
Procedure, shortened: as §2

pigweed [2] = test: Test C postemergence; type: in vivo, Amaranthus retroflexus
Procedure, shortened: as §1

kochia = test: Test C postemergence; type: in vivo, Kochia scoparia; conditions: Bassia scoparia, post-emergence
Procedure, shortened: as §1

Italian ryegrass [3] = test: Test A preemergence; type: in vivo, Lolium multiflorum; conditions: 0 to 100 scale where 0 is no effect and 100 is complete control
Procedure, shortened: as §2

ragweed = test: Test A preemergence; type: in vivo, Ambrosia elatior; conditions: 0 to 100 scale where 0 is no effect and 100 is complete control
Procedure, shortened: as §2

large (Lg) crabgrass = test: Test C preemergence; type: in vivo, Digitaria sanguinalis; conditions: Digitaria sanguinalis, pre-emergence
Procedure, shortened: as §1

Italian ryegrass [4] = test: Test A postemergence; type: in vivo, Lolium multiflorum; conditions: 0 to 100 scale where 0 is no effect and 100 is complete control
Procedure, shortened: as §2

corn = test: Test A postemergence; type: in vivo, Zea mays; conditions: Zea mays, post-emergence, 240 h, 0 to 100 scale where 0 is no effect and 100 is complete control
Procedure, shortened: as §2

yellow nutsedge = test: Test C preemergence; type: in vivo, Cyperus esculentus; conditions: Cyperus, pre-emergence, preemergence, read-out: Nutsedge, Yellow plant response rating
Procedure, shortened: as §1

pigweed [5] = test: Test C preemergence; type: in vivo, Amaranthus retroflexus; conditions: Amaranthus retroflexus, pre-emergence, preemergence, read-out: Pigweed plant response rating
Procedure, shortened: as §1

giant foxtail = test: Test A postemergence; type: in vivo, Setaria faberii; conditions: Setaria faberi, post-emergence, 240 h, 0 to 100 scale where 0 is no effect and 100 is complete control
Procedure, shortened: as §2

[6] = 31 g ai/ha, postemergence, visual rating, scale 0 to 100 (0 no effect, 100 complete control), 13 to 15 days
[7] = 16 g ai/ha, scale 0 to 100 (0 no effect, 100 complete control)
[8] = 62 g ai/ha, scale 0 (no effect) to 100 (complete control)
[9] = 125 g ai/ha, scale 0 (no effect) to 100 (complete control)

FC(F)c1cn(-c2ccccc2Oc2ncc(Cl)cn2)nn1 [Compound 147, 5-chloro-2-[2-[4-(difluoromethyl)-1H-1,2,3-triazol-1-yl]phenoxy]pyrimidine]
Ryegrass, Italian plant response rating (Italian ryegrass [1]; [6]): 0 | pest or weed control at 16 g/ha (Italian ryegrass [1]; Lolium multiflorum, post-emergence, 16 g ai/ha, postemergence, 0 is no effect, 100 is complete control, read-out: Plant response rating (0 to 100), Ryegrass, Italian): 0% | pest or weed control at 125 g/ha (Italian ryegrass [1]; Lolium multiflorum, post-emergence, 125 g ai/ha, postemergence, visual rating, scale 0 to 100 (0 no effect, 100 complete control), read-out: Plant response rating, Ryegrass, Italian): 5% | pest or weed control at 62 g/ha (Italian ryegrass [1]; Lolium multiflorum, post-emergence, Postemergence, 62 g ai/ha, scale 0 to 100 (0 no effect, 100 complete control), read-out: Plant response rating, Ryegrass, Italian): 0% | pest or weed control at 16 g/ha (waterhemp; [7]): 100% | pest or weed control at 62 g/ha (waterhemp; [8]): 100% | pest or weed control at 125 g/ha (waterhemp; [9]): 100% | pest or weed control at 16 g/ha (chickweed; 16 g ai/ha, postemergence, 0 is no effect, 100 is complete control, read-out: Plant response rating (0 to 100), Chickweed): 15% | pest or weed control at 31 g/ha (chickweed; 31 g ai/ha, postemergence, visual rating, scale 0 to 100 (0 no effect, 100 complete control), 13 to 15 days, read-out: Chickweed plant response rating): 70% | pest or weed control at 125 g/ha (chickweed; 125 g ai/ha, postemergence, visual rating, scale 0 to 100 (0 no effect, 100 complete control), read-out: Plant response rating, Chickweed): 90% | pest or weed control at 62 g/ha (chickweed; Postemergence, 62 g ai/ha, scale 0 to 100 (0 no effect, 100 complete control), read-out: Plant response rating, Chickweed): 75% | Velvetleaf plant response rating (velvetleaf; [6]): 70 | pest or weed control at 16 g/ha (velvetleaf; Abutilon theophrasti, post-emergence, 16 g ai/ha, postemergence, 0 is no effect, 100 is complete control, read-out: Plant response rating (0 to 100), Velvetleaf): 55% | pest or weed control at 125 g/ha (velvetleaf; Abutilon theophrasti, post-emergence, 125 g ai/ha, postemergence, visual rating, scale 0 to 100 (0 no effect, 100 complete control), read-out: Plant response rating, Velvetleaf): 75% | pest or weed control at 62 g/ha (velvetleaf; Abutilon theophrasti, post-emergence, Postemergence, 62 g ai/ha, scale 0 to 100 (0 no effect, 100 complete control), read-out: Plant response rating, Velvetleaf): 85% | Galium plant response rating (galium; 125 g ai/ha): 100 | Plant response rating, Galium (galium; 500 g ai/ha): 100 | Blackgrass plant response rating (blackgrass; 125 g ai/ha): 100 | Plant response rating, Blackgrass (blackgrass; 500 g ai/ha): 100 | Pigweed plant response rating (pigweed [2]; [6]): 60 | pest or weed control at 16 g/ha (pigweed [2]; Amaranthus retroflexus, post-emergence, 16 g ai/ha, postemergence, 0 is no effect, 100 is complete control, read-out: Plant response rating (0 to 100), Pigweed): 35% | pest or weed control at 125 g/ha (pigweed [2]; Amaranthus retroflexus, post-emergence, 125 g ai/ha, postemergence, visual rating, scale 0 to 100 (0 no effect, 100 complete control), read-out: Plant response rating, Pigweed): 85% | pest or weed control at 62 g/ha (pigweed [2]; Amaranthus retroflexus, post-emergence, Postemergence, 62 g ai/ha, scale 0 to 100 (0 no effect, 100 complete control), read-out: Plant response rating, Pigweed): 75% | pest or weed control at 16 g/ha (kochia; 16 g ai/ha, postemergence, 0 is no effect, 100 is complete control, read-out: Plant response rating (0 to 100), Kochia): 40% | pest or weed control at 31 g/ha (kochia; 31 g ai/ha, postemergence, visual rating, scale 0 to 100 (0 no effect, 100 complete control), 13 to 15 days, read-out: Kochia plant response rating): 90% | pest or weed control at 125 g/ha (kochia; 125 g ai/ha, postemergence, visual rating, scale 0 to 100 (0 no effect, 100 complete control), read-out: Plant response rating, Kochia): 100% | pest or weed control at 62 g/ha (kochia; Postemergence, 62 g ai/ha, scale 0 to 100 (0 no effect, 100 complete control), read-out: Plant response rating, Kochia): 95% | Plant response rating, Ryegrass, Italian (Italian ryegrass [3]; 125 g ai/ha): 10 | Ryegrass, Italian plant response rating (Italian ryegrass [3]; 500 g ai/ha): 100 | Plant response rating, Ragweed (ragweed; 125 g ai/ha): 90 | Ragweed plant response rating (ragweed; 500 g ai/ha): 100 | pest or weed control at 16 g/ha (large (Lg) crabgrass; 16 g ai/ha, preemergence, scale 0 to 100 (0 no effect, 100 complete control), read-out: Crabgrass, Large plant response rating): 98% | pest or weed control at 62 g/ha (large (Lg) crabgrass; 62 g ai/ha, preemergence, scale 0 (no effect) to 100 (complete control), read-out: Crabgrass, Large plant response rating): 100% | pest or weed control at 125 g/ha (large (Lg) crabgrass; 125 g ai/ha, preemergence, scale 0 (no effect) to 100 (complete control), read-out: Crabgrass, Large plant response rating): 100% | pest or weed control at 31 g/ha (large (Lg) crabgrass; Preemergence, 31 g ai/ha, scale 0 to 100, 0 no effect, 100 complete control, read-out: Plant response rating, Crabgrass, Large): 100% | Ryegrass, Italian plant response rating (Italian ryegrass [4]; 125 g ai/ha): 70 | Plant response rating, Ryegrass, Italian (Italian ryegrass [4]; 500 g ai/ha): 90 | plant injury at 125 g/ha (corn; 125 g ai/ha, read-out: Corn plant response rating): 40% | Corn plant response rating (crop injury, 0 = no effect, 100 = complete kill) at 500 g/ha (corn; 500 g ai/ha): 90% | pest or weed control at 16 g/ha (yellow nutsedge; [7]): 0% | pest or weed control at 62 g/ha (yellow nutsedge; [8]): 15% | pest or weed control at 125 g/ha (yellow nutsedge; [9]): 55% | pest or weed control at 16 g/ha (pigweed [5]; [7]): 100% | pest or weed control at 62 g/ha (pigweed [5]; [8]): 100% | pest or weed control at 125 g/ha (pigweed [5]; [9]): 100% | pest or weed control at 125 g/ha (giant foxtail; 125 g ai/ha, read-out: Foxtail, Giant plant response rating): 90% | pest or weed control at 500 g/ha (giant foxtail; 500 g ai/ha, read-out: Plant response rating, Foxtail, Giant): 90%

Source: patent publication US9695155B2, “Herbicidal substituted pyrimidinyloxy benzene compounds” (E. I. DU PONT DE NEMOURS AND COMPANY, priority 2013, dated 2017)
